# Source: patent publication US6784177B2, “Methods using hydralazine compounds and isosorbide dinitrate or isosorbide mononitrate” (Nitro Med, Inc., priority 1999, dated 2004)
# Read-outs that look alike come from different tables or passages of the source.
# Legend:
# [1] = tested on: male patients with heart failure; assay: V-HeFT II mortality (Kaplan-Meier, log-rank); assay type: in vivo, human
# Description: (§1) Drug administration was double-blind.
# [2] = tested on: male patients with heart failure; assay: V-HeFT II hospitalization; assay type: in vivo, human
# Description: as §1
# [3] = tested on: male patients with heart failure; assay: V-HeFT II peak exercise oxygen consumption (MVO2), bicycle-ergometer exercise test; assay type: in vivo, human
# Method: “Oxygen consumption” was measured during a progressive maximal bicycle-ergometer exercise test taken while the expired air was collected continuously to monitor oxygen consumption. […] Patients with pulmonary diseases, obstructive valvular diseases and the like, tend to have a low oxygen consumption. An increase in a patient's oxygen consumption typically results in the patient's increased exercise tolerance and implies that the patient would have an improved quality of life.
# as §1
# [4] = tested on: male patients with heart failure; assay: V-HeFT II quality of life, Heart Condition Assessment (HCA) questionnaire; assay type: in vivo, human; details: black patients, at 12 months, negative = improved, positive = worsened, p=0.043
# Method: “Quality of life” refers to one or more of a persons ability to walk, climb stairs, do errands, work around the house, participate in recreational activities, and/or not requiring rest during the day, and/or the absence of sleeping problems or shortness of breath. The quality of life was measured using the Heart Condition Assessment (HCA) questionnaire. The questionnaire was self-administered after brief standardization instructions. The score was obtained by summing the ranks of the responses to each question.
# as §1
# [5] = tested on: male patients with heart failure; assay: V-HeFT II change in systolic blood pressure; assay type: in vivo, human
# Description: as §1
# [6] = tested on: male patients with heart failure; assay: V-HeFT II change in radionuclide left ventricular ejection fraction; assay type: in vivo, human; details: both racial groups
# Description: as §1
# [7] = tested on: male patients with heart failure; assay: V-HeFT II change in plasma norepinephrine (radioenzymatic assay); assay type: in vivo, human; details: either racial group
# Description: as §1
# [8] = tested on: male patients with heart failure; assay: V-HeFT II change in radiographic cardiothoracic ratio; assay type: in vivo, human; details: white patients
# Description: as §1
# [9] = tested on: black and white subgroups; assay: black:white relative risk in placebo and enalapril groups (trial not named); assay type: in vivo, human; details: enalapril group; placebo group 1.15
# [10] = tested on: male patients with heart failure; assay: V-HeFT I hospitalization; assay type: in vivo, human
# Description: as §1
# [11] = tested on: male patients with heart failure; details: V-HeFT I
# Method: Baseline measurements were restricted to the test done at the time of randomization. Change in measurements from baseline were compared between black and white patients using t-tests performed for each scheduled follow-up. […] Survival curves were compared by the log-rank test. Survival in black and white patients was further analyzed by presence or absence of a history of hypertension.
# In the present invention, an interaction analysis between race and treatment was performed for both V-HeFT I and II, adjusting for baseline imbalances.
# Male patients were screened for participation in the study on the basis of a history of heart failure or documentation of left ventricular enlargement or dysfunction by chest radiography, echocardiography or radionuclide ventriculography. The specific ventricular imaging requirement for entry was one of the following: a radiographic cardiothoracic ratio >0.55, an echocardiographic left ventricular end-diastolic diameter >2.7 cm/m^2 body surface area or radionuclide left ventricular ejection fraction <0.45. In addition, patients were eligible for entry only if they had reduced maximal exercise tolerance. This was defined as a measured peak oxygen consumption (VO2)<25 ml/kg per min during a progressive bicycle ergometer exercise test.
# Nearly all patients were receiving background therapy with diuretic and/or digoxin. […] Full doses of the vasodilator regimens in V-HeFT I were prazosin 5 mg four times daily, the combination of hydralazine 75 mg and isosorbide dinitrate 40 mg four times daily, or placebo. […] Drug administration was double-blind. All patients were studied for the duration of the trial and for a minimum of 6 months or until death.
structure (smiles),measurement,setting,value
CCOC(=O)[C@H](CCc1ccccc1)N[C@@H](C)C(=O)N1CCC[C@H]1C(=O)O [enalapril],deaths among treated patients,"[1]; black patients, of 106 on enalapril, of 109 on hydralazine-isosorbide dinitrate",39
same,annual mortality rate (AMR),"[1]; black patients, p=NS",12.8%
same,mortality reduction with enalapril compared to hydralazine and isosorbide dinitrate,"[1]; white patients with a history of hypertension, p<0.02",significant mortality reduction
same,annual mortality rate (AMR),"[1]; white patients, log rank p=0.02",11.0%
same,deaths among treated patients,"[1]; white patients, of 292 on enalapril, of 282 on hydralazine-isosorbide dinitrate",90
same,mortality reduction with enalapril compared to hydralazine and isosorbide dinitrate,"[1]; whites or blacks without hypertensive history, blacks with hypertensive history",did not differ
same,patients hospitalized for CHF (%),[2]; black patients,22.6%
same,patients hospitalized for any reason (%),[2]; black patients,61.3%
same,patients hospitalized for CHF (%),[2]; white patients,17.5%
same,patients hospitalized for any reason (%),[2]; white patients,62.0%
same,"mean improvement (increase) from baseline in MVO2, adjusted for differences in baseline characteristics","[3]; black patients, 12 months, p=0.15",0.6 mL/h/kg
same,decrease from baseline in MVO2,"[3]; black patients, 12 months, unadjusted, p=0.19",2.82 mL/h/kg
same,effect on oxygen consumption (MVO2),"[3]; both black and white patients, 13 weeks",did not improve
same,quality of life score (HCA questionnaire),[4],+1.04
same,systolic blood pressure after the initial fall,[5]; black patients,recovered by 13 weeks
same,systolic blood pressure after the initial fall,"[5]; white patients, 4.5 years of follow-up",remained lower thereafter
same,radionuclide ejection fraction (EF) response,[6],rose
same,change in plasma norepinephrine (PNE),[7],not apparent
same,reduction in radiographic heart size (cardiothoracic ratio) during follow-up,[8],persisted through 3 years
same,black:white relative risk,[9],1.34
COc1cc2nc(N3CCN(C(=O)c4ccco4)CC3)nc(N)c2cc1OC [prazosin],patients hospitalized for CHF (%),[10]; black patients,23. %
same,patients hospitalized for any reason (%),[10]; black patients,40.4%
same,patients hospitalized for CHF (%),[10]; white patients,31.5%
same,patients hospitalized for any reason (%),[10]; white patients,35.4%
same,annual mortality rate (AMR),"[11]; black patients, placebo AMR 17.3%",15.4%
same,treatment benefit on survival,"[11]; white patients, vs placebo (FIG. 2B)",absence of demonstrable treatment benefit
same,annual mortality rate (AMR),"[11]; white patients, placebo AMR 18.8%, p=NS",22.1%
